Tested on: 186277-243-T-J2-PDC complex spheroid viability
Test: Anticancer human tumor 186277-243-T-J2-PDC patient-derived colon adenocarcinoma cell line growth inhibition [POLQ]
Details: for IC50: curve of first compound; for viability, T/C: stronger effect = lower value
Outline: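 Patient-derived tumour cells were co-cultured with HUVEC and mesenchymal stem cells as multicellular spheroids at 37 °C. They were treated with POLQ inhibitors (novobiocin, ART-558, RP6685) alone or combined with other agents. Top concentrations were at or near clinical Cmax (otherwise 10 microM; SN-38 at 1 microM), decreasing in half-log steps.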

[1] = second compound 0.0316 µM, first compound 0.0316 µM
[2] = second compound 0.0316 µM, first compound 0.1 µM
[3] = second compound 0.0316 µM, first compound 0.316 µM
[4] = second compound 0.0316 µM, first compound 1 µM
[5] = second compound 0.0316 µM, first compound 3.16 µM
[6] = second compound 0.0316 µM, first compound 10 µM
[7] = second compound 0.1 µM, first compound 0.0316 µM
[8] = second compound 0.1 µM, first compound 0.1 µM
[9] = second compound 0.1 µM, first compound 0.316 µM
[10] = second compound 0.1 µM, first compound 1 µM
[11] = second compound 0.1 µM, first compound 3.16 µM
[12] = second compound 0.1 µM, first compound 10 µM
[13] = second compound 0.316 µM, first compound 0.0316 µM
[14] = second compound 0.316 µM, first compound 0.1 µM
[15] = second compound 0.316 µM, first compound 0.316 µM
[16] = second compound 0.316 µM, first compound 1 µM
[17] = second compound 0.316 µM, first compound 3.16 µM
[18] = second compound 0.316 µM, first compound 10 µM
[19] = second compound 1 µM, first compound 0.0316 µM
[20] = second compound 1 µM, first compound 0.1 µM
[21] = second compound 1 µM, first compound 0.316 µM
[22] = second compound 1 µM, first compound 1 µM
[23] = second compound 1 µM, first compound 3.16 µM
[24] = second compound 1 µM, first compound 10 µM
[25] = second compound 3.16 µM, first compound 0.0316 µM
[26] = second compound 3.16 µM, first compound 0.1 µM
[27] = second compound 3.16 µM, first compound 0.316 µM
[28] = second compound 3.16 µM, first compound 1 µM
[29] = second compound 3.16 µM, first compound 3.16 µM
[30] = second compound 3.16 µM, first compound 10 µM
[31] = second compound 10 µM, first compound 0.0316 µM
[32] = second compound 10 µM, first compound 0.1 µM
[33] = second compound 10 µM, first compound 0.316 µM
[34] = second compound 10 µM, first compound 1 µM
[35] = second compound 10 µM, first compound 3.16 µM
[36] = second compound 10 µM, first compound 10 µM
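Also: spheroids exposed to compounds for seven days.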
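For viability, T/C in this document: 100% = DMSO vehicle control viability.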

## CC(=O)O[C@H]1C(=O)[C@@]2(C)[C@H]([C@H](OC(=O)c3ccccc3)[C@]3(O)C[C@H](OC(=O)[C@H](O)[C@@H](NC(=O)c4ccccc4)c4ccccc4)C(C)=C1C3(C)C)[C@]1(OC(C)=O)CO[C@@H]1C[C@@H]2O + Cc1cccc(N(C)C(=O)C2C(O)CCN2c2nc(C)cc(C(F)(F)F)c2C#N)c1
Second compound 0.0316 µM
  IC50: < 0.00949 µM
Second compound 0.1 µM
  IC50: < 0.00949 µM
Second compound 0.316 µM
  IC50: < 0.00949 µM
Second compound 1 µM
  IC50: < 0.00949 µM
Second compound 3.16 µM
  IC50: < 0.00949 µM
Second compound 10 µM
  IC50: < 0.00949 µM
Second compound 0.0316 µM, first compound 0.00949 µM
  viability, T/C: 37.5%
Second compound 0.0316 µM, first compound 0.03 µM
  viability, T/C: 10.3%
Second compound 0.0316 µM, first compound 0.0949 µM
  viability, T/C: 7.26%
Second compound 0.0316 µM, first compound 0.3 µM
  viability, T/C: 5.79%
Second compound 0.0316 µM, first compound 0.949 µM
  viability, T/C: 5.96%
Second compound 0.0316 µM, first compound 3 µM
  viability, T/C: 6.11%
Second compound 0.1 µM, first compound 0.00949 µM
  viability, T/C: 35%
Second compound 0.1 µM, first compound 0.03 µM
  viability, T/C: 10.9%
Second compound 0.1 µM, first compound 0.0949 µM
  viability, T/C: 7.5%
Second compound 0.1 µM, first compound 0.3 µM
  viability, T/C: 5.9%
Second compound 0.1 µM, first compound 0.949 µM
  viability, T/C: 5.52%
Second compound 0.1 µM, first compound 3 µM
  viability, T/C: 6.96%
Second compound 0.316 µM, first compound 0.00949 µM
  viability, T/C: 45.3%
Second compound 0.316 µM, first compound 0.03 µM
  viability, T/C: 10.2%
Second compound 0.316 µM, first compound 0.0949 µM
  viability, T/C: 6.71%
Second compound 0.316 µM, first compound 0.3 µM
  viability, T/C: 5.81%
Second compound 0.316 µM, first compound 0.949 µM
  viability, T/C: 5.53%
Second compound 0.316 µM, first compound 3 µM
  viability, T/C: 5.53%
Second compound 1 µM, first compound 0.00949 µM
  viability, T/C: 34.8%
Second compound 1 µM, first compound 0.03 µM
  viability, T/C: 12.4%
Second compound 1 µM, first compound 0.0949 µM
  viability, T/C: 6.22%
Second compound 1 µM, first compound 0.3 µM
  viability, T/C: 5.71%
Second compound 1 µM, first compound 0.949 µM
  viability, T/C: 5.47%
Second compound 1 µM, first compound 3 µM
  viability, T/C: 5.47%
Second compound 3.16 µM, first compound 0.00949 µM
  viability, T/C: 27.2%
Second compound 3.16 µM, first compound 0.03 µM
  viability, T/C: 10.5%
Second compound 3.16 µM, first compound 0.0949 µM
  viability, T/C: 6.13%
Second compound 3.16 µM, first compound 0.3 µM
  viability, T/C: 5.47%
Second compound 3.16 µM, first compound 0.949 µM
  viability, T/C: 5.6%
Second compound 3.16 µM, first compound 3 µM
  viability, T/C: 5.16%
Second compound 10 µM, first compound 0.00949 µM
  viability, T/C: 20.3%
Second compound 10 µM, first compound 0.03 µM
  viability, T/C: 6.86%
Second compound 10 µM, first compound 0.0949 µM
  viability, T/C: 5.75%
Second compound 10 µM, first compound 0.3 µM
  viability, T/C: 5.46%
Second compound 10 µM, first compound 0.949 µM
  viability, T/C: 5.93%
Second compound 10 µM, first compound 3 µM
  viability, T/C: 6.1%

## COc1cc2cc(C(=O)CCC(=O)O)sc2cc1OC + Cc1cccc(N(C)C(=O)C2C(O)CCN2c2nc(C)cc(C(F)(F)F)c2C#N)c1
Second compound 0.0316 µM
  IC50: > 10 µM
Second compound 0.1 µM
  IC50: > 10 µM
Second compound 0.316 µM
  IC50: > 10 µM
Second compound 1 µM
  IC50: > 10 µM
Second compound 3.16 µM
  IC50: > 10 µM
Second compound 10 µM
  IC50: > 10 µM
[1]
  viability, T/C: 97.6%
[2]
  viability, T/C: 87.7%
[3]
  viability, T/C: 95%
[4]
  viability, T/C: 82.1%
[5]
  viability, T/C: 111%
[6]
  viability, T/C: 91.6%
[7]
  viability, T/C: 88.8%
[8]
  viability, T/C: 89.1%
[9]
  viability, T/C: 90.5%
[10]
  viability, T/C: 99.7%
[11]
  viability, T/C: 105%
[12]
  viability, T/C: 99.2%
[13]
  viability, T/C: 101%
[14]
  viability, T/C: 91.7%
[15]
  viability, T/C: 96.6%
[16]
  viability, T/C: 98.1%
[17]
  viability, T/C: 93.5%
[18]
  viability, T/C: 103%
[19]
  viability, T/C: 93.2%
[20]
  viability, T/C: 93.5%
[21]
  viability, T/C: 102%
[22]
  viability, T/C: 109%
[23]
  viability, T/C: 101%
[24]
  viability, T/C: 113%
[25]
  viability, T/C: 106%
[26]
  viability, T/C: 112%
[27]
  viability, T/C: 92.4%
[28]
  viability, T/C: 99.4%
[29]
  viability, T/C: 118%
[30]
  viability, T/C: 91.7%
[31]
  viability, T/C: 107%
[32]
  viability, T/C: 109%
[33]
  viability, T/C: 112%
[34]
  viability, T/C: 101%
[35]
  viability, T/C: 93.9%
[36]
  viability, T/C: 84.4%

## CCc1cc2c(N3CCc4c(cc(Cn5ccnc5)cc4-c4cn(C)nc4C(F)(F)F)C3=O)cc(C)nc2c(OC)n1 + COC1C(OC(N)=O)C(O)C(Oc2ccc3c(O)c(NC(=O)c4ccc(O)c(CC=C(C)C)c4)c(=O)oc3c2C)OC1(C)C
Second compound 0.0316 µM
  IC50: > 10 µM
Second compound 0.1 µM
  IC50: > 10 µM
Second compound 0.316 µM
  IC50: > 10 µM
Second compound 1 µM
  IC50: > 10 µM
Second compound 3.16 µM
  IC50: > 10 µM
Second compound 10 µM
  IC50: > 10 µM
[1]
  viability, T/C: 100%
[2]
  viability, T/C: 91.7%
[3]
  viability, T/C: 101%
[4]
  viability, T/C: 80.4%
[5]
  viability, T/C: 80.5%
[6]
  viability, T/C: 77.4%
[7]
  viability, T/C: 88.1%
[8]
  viability, T/C: 92.2%
[9]
  viability, T/C: 92.7%
[10]
  viability, T/C: 96.9%
[11]
  viability, T/C: 100%
[12]
  viability, T/C: 80.4%
[13]
  viability, T/C: 95.6%
[14]
  viability, T/C: 101%
[15]
  viability, T/C: 101%
[16]
  viability, T/C: 93.5%
[17]
  viability, T/C: 85.3%
[18]
  viability, T/C: 84.4%
[19]
  viability, T/C: 99.1%
[20]
  viability, T/C: 101%
[21]
  viability, T/C: 111%
[22]
  viability, T/C: 104%
[23]
  viability, T/C: 104%
[24]
  viability, T/C: 73.7%
[25]
  viability, T/C: 93.4%
[26]
  viability, T/C: 96.6%
[27]
  viability, T/C: 86.3%
[28]
  viability, T/C: 86.2%
[29]
  viability, T/C: 98.9%
[30]
  viability, T/C: 72.4%
[31]
  viability, T/C: 96.5%
[32]
  viability, T/C: 102%
[33]
  viability, T/C: 104%
[34]
  viability, T/C: 107%
[35]
  viability, T/C: 99.2%
[36]
  viability, T/C: 86.1%

Reference: PubChem BioAssay AID1963854 (Molecular Pharmacology Branch, DTP, NCI, 2024)
